In publication PMC11198769, “Enhancement of transcription efficiency by TAR-Tat system increases the functional expression of human olfactory receptors” (PLOS ONE, 2024):

Experiments:
[1] = target: T1, OR4K5 (Homo sapiens, UniProt Q8NGD3); assay: hOR assay (GloSensor cAMP luciferase), dose-response; format: cell-based; conditions: OR4K5, with or without the TAR-Tat system
T1 construct: Lucy tag (N); FLAG (N); Rho tag (N); expressed in transfected cells; host or cells: Flp-In T-REx-293 cells stably expressing RTP1S, Gαolf and Ric8-b
T1 sequence (Q8NGD3 1-323): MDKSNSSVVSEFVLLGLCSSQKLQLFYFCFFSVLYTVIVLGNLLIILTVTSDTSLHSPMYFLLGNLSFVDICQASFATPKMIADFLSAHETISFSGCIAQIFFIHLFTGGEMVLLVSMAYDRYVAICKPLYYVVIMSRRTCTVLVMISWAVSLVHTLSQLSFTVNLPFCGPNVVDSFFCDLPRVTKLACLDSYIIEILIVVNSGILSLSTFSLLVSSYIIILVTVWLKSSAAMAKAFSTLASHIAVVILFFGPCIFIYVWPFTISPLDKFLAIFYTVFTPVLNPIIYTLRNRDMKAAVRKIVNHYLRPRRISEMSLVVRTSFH

[2] = target: T2, OR8B3 (Homo sapiens, UniProt Q8NGG8); assay: as above; format: cell-based; conditions: OR8B3, with or without the TAR-Tat system
T2 construct: Lucy tag (N); FLAG (N); Rho tag (N); expressed in transfected cells; host or cells: Flp-In T-REx-293 cells stably expressing RTP1S, Gαolf and Ric8-b
T2 sequence (Q8NGG8 1-313): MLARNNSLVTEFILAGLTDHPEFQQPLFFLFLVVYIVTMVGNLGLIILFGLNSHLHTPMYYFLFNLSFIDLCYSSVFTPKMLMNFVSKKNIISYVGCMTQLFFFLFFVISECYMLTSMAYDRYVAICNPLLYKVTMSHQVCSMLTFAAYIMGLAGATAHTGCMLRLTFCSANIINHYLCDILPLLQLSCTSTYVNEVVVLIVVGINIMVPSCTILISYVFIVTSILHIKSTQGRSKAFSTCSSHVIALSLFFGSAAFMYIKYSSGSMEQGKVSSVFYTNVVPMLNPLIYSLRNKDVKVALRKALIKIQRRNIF

[3] = target: T3, OR8B4 (Homo sapiens, UniProt Q96RC9); assay: as above; format: cell-based; conditions: OR8B4, with or without the TAR-Tat system
T3 construct: Lucy tag (N); FLAG (N); Rho tag (N); expressed in transfected cells; host or cells: Flp-In T-REx-293 cells stably expressing RTP1S, Gαolf and Ric8-b
T3 sequence (Q96RC9 1-309): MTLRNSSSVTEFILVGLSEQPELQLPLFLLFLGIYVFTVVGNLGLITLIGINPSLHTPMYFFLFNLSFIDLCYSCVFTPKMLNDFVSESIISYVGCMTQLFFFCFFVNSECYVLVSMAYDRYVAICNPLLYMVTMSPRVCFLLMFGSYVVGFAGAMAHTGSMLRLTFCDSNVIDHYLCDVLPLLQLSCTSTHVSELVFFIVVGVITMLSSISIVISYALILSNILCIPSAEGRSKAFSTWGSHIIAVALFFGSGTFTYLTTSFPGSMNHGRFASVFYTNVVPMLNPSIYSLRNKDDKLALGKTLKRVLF

[4] = target: T4, OR2W1 (Homo sapiens, UniProt Q9Y3N9); parameters: method as in PMID 19261596; conditions: read-out: EC50 value of n-hexanal for OR2W1 reported in a previous study; cited from earlier work
T4 construct: Lucy tag (N); FLAG (N); Rho tag (N); expressed in transfected cells; host or cells: Flp-In T-REx-293 cells stably expressing RTP1S, Gαolf and Ric8-b
T4 sequence (Q9Y3N9 1-320): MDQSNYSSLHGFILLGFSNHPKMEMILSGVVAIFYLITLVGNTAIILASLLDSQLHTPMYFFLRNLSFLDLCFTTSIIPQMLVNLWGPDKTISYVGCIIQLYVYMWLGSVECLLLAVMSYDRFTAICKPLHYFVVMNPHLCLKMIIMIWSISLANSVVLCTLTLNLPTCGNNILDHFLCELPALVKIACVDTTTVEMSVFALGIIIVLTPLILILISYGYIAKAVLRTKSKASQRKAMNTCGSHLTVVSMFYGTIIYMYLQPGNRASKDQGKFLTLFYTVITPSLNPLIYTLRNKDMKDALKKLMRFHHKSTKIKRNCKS

With `CCCCCC=O` [n-hexanal] the “concentration-dependent response to n-hexanal” value [1] was “no concentration-dependent response”, the “concentration-dependent response to n-hexanal” value [2] was “no concentration-dependent response” and the “concentration-dependent response to n-hexanal” value [3] was “no concentration-dependent response”. For the same compound, the EC50 [4] was 7.9 µM.
